According to the supplement of paper PMC10307832:

Columns and labels:
Assay in all cases: relative viability (nuclei count vs DMSO), 5 days (fraction); higher = more cells survive
[1] = tested on: BEN
In short: (§1)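 Each reported value is a median over duplicate plates. It expresses relative viability: treated-well nuclei count divided by vehicle-well nuclei count. Lung cancer cell lines in 1536-well plates were dosed by pin tool a day after seeding, alone with one drug or with a fixed anchor-drug dose plus five library-drug doses (not always all listed) in √10 steps, and nuclei were counted after 5 days.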

[2] = tested on: COR-L23
In short: as §1

[3] = tested on: HCC-366
In short: as §1

[4] = tested on: LOU-NH91
In short: as §1

[5] = tested on: LU99A
In short: as §1

[6] = tested on: NCI-H1355
In short: as §1

[7] = tested on: NCI-H1437
In short: as §1

[8] = tested on: NCI-H1650
In short: as §1

[9] = tested on: NCI-H1651
In short: as §1

[10] = tested on: NCI-H1734
In short: as §1

[11] = tested on: NCI-H1793
In short: as §1

[12] = tested on: NCI-H1975
In short: as §1

[13] = tested on: NCI-H2023
In short: as §1

[14] = tested on: NCI-H2085
In short: as §1

[15] = tested on: NCI-H2342
In short: as §1

[16] = tested on: NCI-H358
In short: as §1

[17] = tested on: NCI-H441
In short: as §1

[18] = tested on: NCI-H460
In short: as §1

[19] = tested on: NCI-H838
In short: as §1

[20] = tested on: SK-LU-1
In short: as §1

## COc1nc(C)cnc1NS(=O)(=O)c1cccnc1-c1ccc(-c2nnco2)cc1 [Zibotentan] + Nc1ncn([C@H]2C[C@H](O)[C@@H](CO)O2)c(=O)n1 [Decitabine] (partner 2 µM)
[1]; first compound 0.08 µM
  relative viability: 0.784
[1]; first compound 0.253 µM
  relative viability: 0.691
[1]; first compound 0.8 µM
  relative viability: 0.734
[1]; first compound 2.53 µM
  relative viability: 0.646
[2]; first compound 0.08 µM
  relative viability: 0.506
[2]; first compound 0.253 µM
  relative viability: 0.402
[2]; first compound 0.8 µM
  relative viability: 0.573
[2]; first compound 2.53 µM
  relative viability: 0.455
[3]; first compound 0.08 µM
  relative viability: 0.391
[3]; first compound 0.253 µM
  relative viability: 0.317
[3]; first compound 0.8 µM
  relative viability: 0.331
[3]; first compound 2.53 µM
  relative viability: 0.358
[4]; first compound 0.08 µM
  relative viability: 0.799
[4]; first compound 0.253 µM
  relative viability: 0.78
[4]; first compound 0.8 µM
  relative viability: 0.879
[4]; first compound 2.53 µM
  relative viability: 0.815
[5]; first compound 0.08 µM
  relative viability: 0.933
[5]; first compound 0.253 µM
  relative viability: 0.848
[5]; first compound 0.8 µM
  relative viability: 0.95
[5]; first compound 2.53 µM
  relative viability: 1.06
[6]; first compound 0.08 µM
  relative viability: 0.346
[6]; first compound 0.253 µM
  relative viability: 0.337
[6]; first compound 0.8 µM
  relative viability: 0.368
[6]; first compound 2.53 µM
  relative viability: 0.35
[7]; first compound 0.08 µM
  relative viability: 0.534
[7]; first compound 0.253 µM
  relative viability: 0.545
[7]; first compound 0.8 µM
  relative viability: 0.564
[7]; first compound 2.53 µM
  relative viability: 0.556
[8]; first compound 0.08 µM
  relative viability: 0.393
[8]; first compound 0.8 µM
  relative viability: 0.626
[8]; first compound 2.53 µM
  relative viability: 0.488
[9]; first compound 0.08 µM
  relative viability: 0.657
[9]; first compound 0.253 µM
  relative viability: 0.607
[9]; first compound 0.8 µM
  relative viability: 0.567
[9]; first compound 2.53 µM
  relative viability: 0.516
[10]; first compound 0.08 µM
  relative viability: 0.486
[10]; first compound 0.253 µM
  relative viability: 0.496
[10]; first compound 0.8 µM
  relative viability: 0.513
[10]; first compound 2.53 µM
  relative viability: 0.541
[11]; first compound 0.08 µM
  relative viability: 0.503
[11]; first compound 0.253 µM
  relative viability: 0.471
[11]; first compound 0.8 µM
  relative viability: 0.528
[11]; first compound 2.53 µM
  relative viability: 0.635
[12]; first compound 0.08 µM
  relative viability: 0.565
[12]; first compound 0.253 µM
  relative viability: 0.384
[12]; first compound 0.8 µM
  relative viability: 0.403
[12]; first compound 2.53 µM
  relative viability: 0.377
[13]; first compound 0.08 µM
  relative viability: 0.245
[13]; first compound 0.253 µM
  relative viability: 0.211
[13]; first compound 0.8 µM
  relative viability: 0.203
[13]; first compound 2.53 µM
  relative viability: 0.214
[14]; first compound 0.08 µM
  relative viability: 0.566
[14]; first compound 0.253 µM
  relative viability: 0.54
[14]; first compound 0.8 µM
  relative viability: 0.592
[14]; first compound 2.53 µM
  relative viability: 0.56
[15]; first compound 0.08 µM
  relative viability: 0.659
[15]; first compound 0.253 µM
  relative viability: 0.776
[15]; first compound 0.8 µM
  relative viability: 0.707
[15]; first compound 2.53 µM
  relative viability: 0.71
[16]; first compound 0.08 µM
  relative viability: 0.196
[16]; first compound 0.253 µM
  relative viability: 0.139
[16]; first compound 2.53 µM
  relative viability: 0.222
[17]; first compound 0.08 µM
  relative viability: 0.244
[17]; first compound 0.253 µM
  relative viability: 0.273
[17]; first compound 0.8 µM
  relative viability: 0.264
[17]; first compound 2.53 µM
  relative viability: 0.225
[18]; first compound 0.08 µM
  relative viability: 0.444
[18]; first compound 0.253 µM
  relative viability: 0.287
[18]; first compound 0.8 µM
  relative viability: 0.464
[18]; first compound 2.53 µM
  relative viability: 0.509
[19]; first compound 0.08 µM
  relative viability: 0.455
[19]; first compound 0.253 µM
  relative viability: 0.414
[19]; first compound 0.8 µM
  relative viability: 0.545
[19]; first compound 2.53 µM
  relative viability: 0.461
[20]; first compound 0.08 µM
  relative viability: 0.805
[20]; first compound 0.253 µM
  relative viability: 0.688
[20]; first compound 0.8 µM
  relative viability: 0.722
[20]; first compound 2.53 µM
  relative viability: 0.642
